# Experiments:
# [1] = system: human peripheral blood mononuclear cells (PBMCs); experiment: Human PBMC activation assay, cytokine levels (IL-10, IL-6, MCP-1, TNF-α) in supernatant after 24 hours (Example 9); conditions: human PBMC supernatant after 24 hours
# Method: Ionis SMAD7 oligonucleotides were tested in an in vitro assay for potential immunostimulatory properties in an in vitro human peripheral blood mononuclear cell (PBMC) activation assay.
# Blood samples were collected from healthy human volunteers in heparinized vials and mixed well. Human PBMCs were isolated by gradient centrifugation using Ficoll-Histopaque. The cells were washed, counted and resuspended in medium. The PBMCs were plated in a 24-well culture plate and various concentrations of oligonucleotides were added to the media. An oligonucleotide historically known to promote an inflammatory response was used as a positive control, whereas an oligonucleotide known not to be pro-inflammatory was used as a negative control. […] The supernatants were collected after 24 hours and analyzed for cytokine levels using MSD platform.
# [2] = Blood chemistry markers after oral gavage in CD-1 mice (Example 7); format: in vivo; conditions: 500 mg/kg oral gavage once daily for 4 weeks, day 30
# Method: The objective of this study was to evaluate the tolerability and pharmacodynamics of select Ionis human SMAD7 antisense oligonucleotides in CD-1 mice following 4 weeks of treatment. The mice were administered oligonucleotides by oral gavage.
# (§1) Groups of 7-8 week old male CD-1 mice were given an oral gavage dose once daily for 4 weeks of 500 mg/kg of Ionis SMAD7 oligonucleotides. Each group contained 8 mice. One group of male CD-1 mice was administered saline by oral gavage daily.
# Levels of transaminases, albumin, and BUN were measured using a Toshiba 200FR NEO chemistry analyzer (Toshiba Co., Japan).
# human SMAD7 mRNA = experiment: Antisense inhibition of human SMAD7 mRNA expression in Hep3B cells by 3-10-3 cEt gapmers, 10,000 nM, electroporation (Example 2); format: cell-based; conditions: Hep3B cells, electroporation with 10,000 nM antisense oligonucleotide, approximately 24 hours
# In short: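 qRT-PCR (RTS5062) of SMAD7 mRNA, normalised to RIBOGREEN total RNA, gave percent inhibition relative to untreated controls. Hep3B cells at 20,000 per well received 10,000 nM oligonucleotide by electroporation, with ~24 h treatment.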
# [3] = Oligonucleotide concentrations in tissues by LC-MS/MS after oral gavage in CD-1 mice (Example 7); format: in vivo; conditions: 500 mg/kg oral gavage once daily for 4 weeks, 48 hours after last dose
# Method: as §1
# Oligonucleotide concentrations were detected in various tissues by LC-MS/MS analysis. The greatest concentration was found in the kidney, followed by the colon.
# [4] = Plasma chemistry markers after subcutaneous administration in beagle dogs (Example 8); conditions: 30 mg/kg subcutaneous days 1, 3, 5, 8, 15, 22, 29, plasma at day 31
# [5] = Oligonucleotide concentration in liver and colon by LC-MS/MS after subcutaneous administration in CD-1 mice (Example 6); format: in vivo; conditions: 50 mg/kg subcutaneously twice a week for 7 weeks, 48 hours after the last dose
# Method: (§2) Groups of 8-9 week old male CD-1 mice were injected subcutaneously twice a week for 7 weeks with 50 mg/kg of Ionis oligonucleotides (100 mg/kg/week dose). Each group contained 4 mice. One group of male CD-1 mice was injected subcutaneously twice a week for 7 weeks with PBS. Plasma was collected for analysis on day 28.
# Oligonucleotide concentrations in the liver and colon were analyzed using LC-MS/MS method.
# mouse Smad7 mRNA = experiment: Pharmacology: mouse Smad7 mRNA expression in liver, kidney, duodenum, ileum and colon after subcutaneous administration in CD-1 mice (Example 6); format: in vivo; conditions: 50 mg/kg subcutaneous twice weekly for 7 weeks, normalized to GAPDH
# Method: as §2
# The pharmacological activity of the Ionis oligonucleotides in mice was assessed by measuring mouse Smad7 mRNA expression in liver, kidney, duodenum, ileum, and colon at necropsy.
# Tissue samples from all mice were analyzed for Smad7 mRNA expression using the primer probe set HTS7555 (forward sequence […], designated SEQ ID NO: 2737; reverse sequence […], designated SEQ ID NO: 2738; probe sequence […], designated SEQ ID NO: 2739), which was normalized to mRNA levels of the housekeeping gene, GAPDH. One-way ANOVA with Dunnet's comparison test was used for statistical analysis.
substance,measurement,setting,value
"830037 (antisense CTATTGGCTGATCTGG; 3-10-3 cEt gapmer, further chemistry not given here) [compound 830037]",Levels of IL-6,[1]; 0.0128 μM oligonucleotide,3.8 pg/mL
same,Levels of IL-10,[1]; 0.0128 μM oligonucleotide,1.6 pg/mL
same,Levels of MCP-1,[1]; 0.0128 μM oligonucleotide,369.4 pg/mL
same,Levels of TNF-α,[1]; 0.0128 μM oligonucleotide,3.2 pg/mL
same,Levels of IL-6,[1]; 0.064 μM oligonucleotide,9.8 pg/mL
same,Levels of IL-10,[1]; 0.064 μM oligonucleotide,3.2 pg/mL
same,Levels of MCP-1,[1]; 0.064 μM oligonucleotide,557.1 pg/mL
same,Levels of TNF-α,[1]; 0.064 μM oligonucleotide,4.1 pg/mL
same,Levels of IL-6,[1]; 0.32 μM oligonucleotide,26.7 pg/mL
same,Levels of IL-10,[1]; 0.32 μM oligonucleotide,8.2 pg/mL
same,Levels of MCP-1,[1]; 0.32 μM oligonucleotide,1284.2 pg/mL
same,Levels of TNF-α,[1]; 0.32 μM oligonucleotide,8.2 pg/mL
same,Levels of IL-6,[1]; 1.6 μM oligonucleotide,38.6 pg/mL
same,Levels of IL-10,[1]; 1.6 μM oligonucleotide,9.5 pg/mL
same,Levels of MCP-1,[1]; 1.6 μM oligonucleotide,1085.9 pg/mL
same,Levels of TNF-α,[1]; 1.6 μM oligonucleotide,9.2 pg/mL
same,Levels of IL-6,[1]; 8 μM oligonucleotide,38.4 pg/mL
same,Levels of IL-10,[1]; 8 μM oligonucleotide,7.1 pg/mL
same,Levels of MCP-1,[1]; 8 μM oligonucleotide,1917.1 pg/mL
same,Levels of TNF-α,[1]; 8 μM oligonucleotide,11.1 pg/mL
same,Levels of IL-6,[1]; 40 μM oligonucleotide,58.7 pg/mL
same,Levels of IL-10,[1]; 40 μM oligonucleotide,4.7 pg/mL
same,Levels of MCP-1,[1]; 40 μM oligonucleotide,3414.8 pg/mL
same,Levels of TNF-α,[1]; 40 μM oligonucleotide,16.6 pg/mL
same,Levels of IL-6,[1]; 200 μM oligonucleotide,71.2 pg/mL
same,Levels of IL-10,[1]; 200 μM oligonucleotide,3.8 pg/mL
same,Levels of MCP-1,[1]; 200 μM oligonucleotide,2449.3 pg/mL
same,Levels of TNF-α,[1]; 200 μM oligonucleotide,18.9 pg/mL
same,ALT,[2],62 IU/L
same,AST,[2],94 IU/L
same,Albumin,[2],3.3 g/dL
same,BUN,[2],26 mg/dL
same,Bilirubin,[2],0.3 mg/dL
same,% Inhibition,"human SMAD7 mRNA; SMAD7 mRNA by RT-PCR (RTS5062), relative to untreated control cells",67%
same,"Oligonucleotide concentration, Colon",[3],4.8 µg/g
same,"Oligonucleotide concentration, Duodenum",[3],1.2 µg/g
same,"Oligonucleotide concentration, Ileum",[3],2.7 µg/g
same,"Oligonucleotide concentration, Kidney",[3],32.4 µg/g
same,"Oligonucleotide concentration, Liver",[3],3.9 µg/g
same,ALT,[4],3091 IU/L
same,AST,[4],1132 IU/L
same,Albumin,[4],3.7 g/dL
same,BUN,[4],21.2 mg/dL
same,Bilirubin,[4],0.8 mg/dL
same,Creatine,[4],1.0 mg/dL
same,"Oligonucleotide concentration, Colon",[5],24 μg/g tissue
same,"Oligonucleotide concentration, Liver",[5],97 μg/g tissue
same,"% inhibition of Smad7 mRNA expression (compared to control), Kidney",mouse Smad7 mRNA,7%
same,"% inhibition of Smad7 mRNA expression (compared to control), Liver",mouse Smad7 mRNA,24%
"829994 (GGAGGCAGGGCCGCGA; 3-10-3 cEt gapmer, further chemistry not given here) [compound 829994]",Levels of IL-6,[1]; 0.0128 μM oligonucleotide,4.1 pg/mL
same,Levels of IL-10,[1]; 0.0128 μM oligonucleotide,2.0 pg/mL
same,Levels of MCP-1,[1]; 0.0128 μM oligonucleotide,299.8 pg/mL
same,Levels of TNF-α,[1]; 0.0128 μM oligonucleotide,2.5 pg/mL
same,Levels of IL-6,[1]; 0.064 μM oligonucleotide,3.8 pg/mL
same,Levels of IL-10,[1]; 0.064 μM oligonucleotide,1.8 pg/mL
same,Levels of MCP-1,[1]; 0.064 μM oligonucleotide,379.8 pg/mL
same,Levels of TNF-α,[1]; 0.064 μM oligonucleotide,2.9 pg/mL
same,Levels of IL-6,[1]; 0.32 μM oligonucleotide,4.5 pg/mL
same,Levels of IL-10,[1]; 0.32 μM oligonucleotide,1.8 pg/mL
same,Levels of MCP-1,[1]; 0.32 μM oligonucleotide,489.7 pg/mL
same,Levels of TNF-α,[1]; 0.32 μM oligonucleotide,3.0 pg/mL
same,Levels of IL-6,[1]; 1.6 μM oligonucleotide,15.9 pg/mL
same,Levels of IL-10,[1]; 1.6 μM oligonucleotide,5.2 pg/mL
same,Levels of MCP-1,[1]; 1.6 μM oligonucleotide,1300.0 pg/mL
same,Levels of TNF-α,[1]; 1.6 μM oligonucleotide,8.0 pg/mL
same,Levels of IL-6,[1]; 8 μM oligonucleotide,202.5 pg/mL
same,Levels of IL-10,[1]; 8 μM oligonucleotide,8.0 pg/mL
same,Levels of MCP-1,[1]; 8 μM oligonucleotide,3370.0 pg/mL
same,Levels of TNF-α,[1]; 8 μM oligonucleotide,63.2 pg/mL
same,Levels of IL-6,[1]; 40 μM oligonucleotide,66.1 pg/mL
same,Levels of IL-10,[1]; 40 μM oligonucleotide,4.3 pg/mL
same,Levels of MCP-1,[1]; 40 μM oligonucleotide,1998.4 pg/mL
same,Levels of TNF-α,[1]; 40 μM oligonucleotide,32.3 pg/mL
same,Levels of IL-6,[1]; 200 μM oligonucleotide,97.1 pg/mL
same,Levels of IL-10,[1]; 200 μM oligonucleotide,3.8 pg/mL
same,Levels of MCP-1,[1]; 200 μM oligonucleotide,391.7 pg/mL
same,Levels of TNF-α,[1]; 200 μM oligonucleotide,28.6 pg/mL
same,ALT,[2],38 IU/L
same,AST,[2],71 IU/L
same,Albumin,[2],3.2 g/dL
same,BUN,[2],25 mg/dL
same,Bilirubin,[2],0.3 mg/dL
same,% Inhibition,"human SMAD7 mRNA; SMAD7 mRNA, primer probe set RTS5062, relative to untreated control cells",68%
same,"Oligonucleotide concentration, Colon",[3],5.7 µg/g
same,"Oligonucleotide concentration, Duodenum",[3],0.8 µg/g
same,"Oligonucleotide concentration, Ileum",[3],4.0 µg/g
same,"Oligonucleotide concentration, Kidney",[3],9.8 µg/g
same,"Oligonucleotide concentration, Liver",[3],1.3 µg/g
same,ALT,[4],62 IU/L
same,AST,[4],52 IU/L
same,Albumin,[4],3.1 g/dL
same,BUN,[4],15.4 mg/dL
same,Bilirubin,[4],0.1 mg/dL
same,Creatine,[4],0.7 mg/dL
same,"Oligonucleotide concentration, Colon",[5],11 μg/g tissue
same,"Oligonucleotide concentration, Liver",[5],45 μg/g tissue
same,"% inhibition of Smad7 mRNA expression (compared to control), Kidney",mouse Smad7 mRNA,73%
same,"% inhibition of Smad7 mRNA expression (compared to control), Liver",mouse Smad7 mRNA,58%
